Reference: patent publication US10174067B2, “Type of cytidine derivative and application thereof” (priority 2014, dated 2019)
Marks after values point to notes of the source that are not given here.

Columns and labels:
[1] = system: ICR mice; assay: in vivo; settings: female ICR mice; single-dose ip
Outline: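 MTD, the dose without mortality, body-weight loss over 10% from Day 0 or marked adverse signs, was found by stepwise up/down single intraperitoneal dosing of female SPF ICR mice. Vehicle: ethanol:Cremophor EL:saline 5:5:90. Animals weighed daily and clinically checked twice daily for up to 14 days.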

[2] = system: HCT-116 colon cancer xenografts; assay: Tumor growth inhibition of HCT-116 colon cancer xenografts in tumor-bearing nude mice (tumor volume, TGI %, RTV, T/C %); type: in vivo, Balb/c Nude mice; settings: G10-G16 groups, single IP 400 mg/kg
Outline: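 Tumors in HCT-116-inoculated nude mice were sized three times weekly by diameter, with volume V=3/4π(D/2)^3. Significance set at P<0.05.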

[3] = for Weight change rate, Day 0 / Weight of mice, Day 0 / Weight change rate, Day 1 / Weight of mice, Day 1 / Weight change rate, Day 2 / Weight of mice, Day 2 / Weight change rate, Day 4 / Weight of mice, Day 4 / Weight change rate, Day 7 / Weight of mice, Day 7 / Weight change rate, Day 9 / Weight of mice, Day 9 / Weight change rate, Day 11 / Weight of mice, Day 11 / Weight change rate, Day 14 / Weight of mice, Day 14 / Weight change rate, Day 16 / Weight of mice, Day 16 / Weight change rate, Day 18 / Weight of mice, Day 18 / Weight change rate, Day 21 / Weight of mice, Day 21 / Weight change rate, Day 23 / Weight of mice, Day 23 / Weight change rate, Day 25 / Weight of mice, Day 25 / Weight change rate, Day 28 / Weight of mice, Day 28 / Weight change rate, Day 30 / Weight of mice, Day 30: G10-G16 groups, single IP 400 mg/kg; for Weight of mice, Day 0 / Weight change rate, Day 1 / Weight of mice, Day 1 / Weight change rate, Day 2 / Weight of mice, Day 2 / Weight change rate, Day 4 / Weight of mice, Day 4 / Weight change rate, Day 7 / Weight of mice, Day 7 / Weight change rate, Day 9 / Weight of mice, Day 9 / Weight change rate, Day 11 / Weight of mice, Day 11 / Weight change rate, Day 14 / Weight of mice, Day 14 / Weight change rate, Day 16 / Weight of mice, Day 16 / Weight change rate, Day 18 / Weight of mice, Day 18 / Weight change rate, Day 21 / Weight of mice, Day 21 / Weight change rate, Day 23 / Weight of mice, Day 23 / Weight change rate, Day 25 / Weight of mice, Day 25 / Weight change rate, Day 28 / Weight of mice, Day 28 / Weight change rate, Day 30 / Weight of mice, Day 30: Mean±SEM; for Day 22 Mortality: single IP dose (mg/kg); for clinical symptoms: after single IP dose, compared with model control group
Outline: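 Test compounds formulated in ethanol:Cremophor EL:saline (5:5:90), vehicle alone as control, in HCT-116 subcutaneous xenografts in female Balb/c nudes (6/group, start 60–150 mm^3). Weight measured three times weekly, tumour weight at end; unpaired t-test on Mean±SEM data.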

## CCCCOC(=O)Nc1nc(=O)n(C2OC(COC(=O)COc3nc(Cl)c(Cl)cc3Cl)C(O)C2(F)F)cc1-c1cn(Cc2ccccc2)nn1 (stereo not drawn) [Compound G15]
[1]
  dose that could be tolerated (maximum tolerated dose, MTD): 400 mg/kg
[2]
  Day 0 (RTV): 1.00
  Day 1 (TGI %): 35.29%
  Day 2 (TGI %): 44.25%
  Day 7 (TGI %): 86.92%
  Day 9 (TGI %): 91.92%
  Day 11 (TGI %): 92.19%
  Day 14 (TGI %): 86.10%
  Day 16 (TGI %): 77.07%
  Day 18 (TGI %): 71.73%
  Day 21 (TGI %): 60.58%
  Day 23 (TGI %): 59.19%
  Day 25 (TGI %): 57.93%
  Day 28 (TGI %): 49.34%
  Day 30 (TGI %): 37.03%
[2]; Mean±SEM
  Tumor volume, Day 0: 80.27 ± 13.25 mm^3
  Day 1 (RTV): 1.44 ± 0.12
  Tumor volume, Day 1: 116.82 ± 21* mm^3
  Day 2 (RTV): 1.50 ± 0.15
  Tumor volume, Day 2: 123.70 ± 25.72* mm^3
  Day 7 (RTV): 0.88 ± 0.12
  Tumor volume, Day 7: 56.58 ± 8.87** mm^3
  Day 9 (RTV): 0.77 ± 0.23
  Tumor volume, Day 9: 47.71 ± 0.00** mm^3
  Day 11 (RTV): 1.19 ± 0.19
  Tumor volume, Day 11: 76.28 ± 10.83** mm^3
  Day 14 (RTV): 3.15 ± 0.61
  Tumor volume, Day 14: 200.24 ± 20.65** mm^3
  Day 16 (RTV): 6.58 ± 1.42
  Tumor volume, Day 16: 415.31 ± 33.61** mm^3
  Day 18 (RTV): 8.97 ± 2.01
  Tumor volume, Day 18: 564.86 ± 41.27** mm^3
  Day 21 (RTV): 15.35 ± 3.61
  Tumor volume, Day 21: 963.72 ± 58.94 mm^3
  Day 23 (RTV): 15.35 ± 3.61
  Tumor volume, Day 23: 963.72 ± 58.94 mm^3
  Day 25 (RTV): 17.32 ± 4.11
  Tumor volume, Day 25: 1086.50 ± 63.85 mm^3
  Day 28 (RTV): 21.75 ± 5.25
  Tumor volume, Day 28: 1362.50 ± 74.25 mm^3
  Day 30 (RTV): 28.66 ± 8.38
  Tumor volume, Day 30: 1767.15 ± 0.00 mm^3
[2]; Day 4
  Day 4 (TGI %): 67.87%
[2]; Day 4, Mean±SEM
  Day 4 (RTV): 1.11 ± 0.17
  Tumor volume, Day 4: 95.41 ± 22.57** mm^3
[3]
  Weight change rate, Day 0: 0.00%
  Weight of mice, Day 0: 20.15 ± 0.29 g
  Weight change rate, Day 1: −1.20 ± 1.02%
  Weight of mice, Day 1: 19.92 ± 0.44 g
  Weight change rate, Day 2: −11.24 ± 1.52 %
  Weight of mice, Day 2: 17.9 ± 0.52 g
  Weight change rate, Day 4: −18.30 ± 3.09 %
  Weight of mice, Day 4: 16.48 ± 0.77 g
  Weight change rate, Day 7: −1.96 ± 0.54%
  Weight of mice, Day 7: 20.10 ± 0.60 g
  Weight change rate, Day 9: 2.49 ± 2.01%
  Weight of mice, Day 9: 21.00 ± 0.10 g
  Weight change rate, Day 11: 4.46 ± 3.04%
  Weight of mice, Day 11: 21.40 ± 0.10 g
  Weight change rate, Day 14: 7.83 ± 1.17 %
  Weight of mice, Day 14: 22.1 ± 0.30 g
  Weight change rate, Day 16: 11.00 ± 1.00 %
  Weight of mice, Day 16: 22.75 ± 0.35 g
  Weight change rate, Day 18: 13.18 ± 0.32 %
  Weight of mice, Day 18: 23.20 ± 0.50 g
  Weight change rate, Day 21: 9.29 ± 0.71 %
  Weight of mice, Day 21: 22.40 ± 0.40 g
  Day 22 Mortality: 67%
  Weight change rate, Day 23: 8.06 ± 0.44 %
  Weight of mice, Day 23: 22.15 ± 0.45 g
  Weight change rate, Day 25: 9.26 ± 0.26%
  Weight of mice, Day 25: 22.4 ± 0.60 g
  Weight change rate, Day 28: 7.08 ± 0.42%
  Weight of mice, Day 28: 21.95 ± 0.45 g
  Weight change rate, Day 30: 9.20 ± 2.70%
  Weight of mice, Day 30: 22.40 ± 1.10 g
  clinical symptoms: no significant differences in clinical symptoms

## CCCCOC(=O)Nc1nc(=O)n(C2OC(COC(=O)COc3nc(Cl)c(Cl)cc3Cl)C(O)C2(F)F)cc1Br (stereo not drawn) [Compound G16]
[1]
  dose that could be tolerated (maximum tolerated dose, MTD): 400 mg/kg
[2]
  Day 0 (RTV): 1.00
  Day 1 (TGI %): 63.52%
  Day 2 (TGI %): 56.02%
  Day 7 (TGI %): 45.07%
  Day 9 (TGI %): 33.79%
  Day 11 (TGI %): 36.38%
  Day 14 (TGI %): 27.91%
  Day 16 (TGI %): 27.25%
  Day 18 (TGI %): 21.59%
  Day 21 (TGI %): 23.19%
  Day 23 (TGI %): 18.55%
  Day 25 (TGI %): 18.29%
  Day 28 (TGI %): 38.94%
  Day 30 (TGI %): 52.84%
[2]; Mean±SEM
  Tumor volume, Day 0: 52.57 ± 10.93** mm^3
  Day 1 (RTV): 1.25 ± 0.20
  Tumor volume, Day 1: 65.85 ± 18.30** mm^3
  Day 2 (RTV): 2.10 ± 0.74
  Tumor volume, Day 2: 97.57 ± 24.94** mm^3
  Day 7 (RTV): 5.12 ± 2.41
  Tumor volume, Day 7: 237.57 ± 74.65* mm^3
  Day 9 (RTV): 8.09 ± 3.62
  Tumor volume, Day 9: 390.87 ± 115.68 mm^3
  Day 11 (RTV): 12.66 ± 5.21
  Tumor volume, Day 11: 621.03 ± 173.32 mm^3
  Day 14 (RTV): 20.81 ± 7.22
  Tumor volume, Day 14: 1038.23 ± 262.72 mm^3
  Day 16 (RTV): 26.35 ± 8.64
  Tumor volume, Day 16: 1317.52 ± 322.74 mm^3
  Day 18 (RTV): 31.97 ± 10.14
  Tumor volume, Day 18: 1566.87 ± 378.64 mm^3
  Day 21 (RTV): 38.61 ± 9.84
  Tumor volume, Day 21: 1877.91 ± 388.81 mm^3
  Day 23 (RTV): 39.81 ± 9.58
  Tumor volume, Day 23: 1923.55 ± 392.05 mm^3
  Day 25 (RTV): 43.89 ± 10.29
  Tumor volume, Day 25: 2110.15 ± 421.51 mm^3
  Day 28 (RTV): 39.62 ± 10.42
  Tumor volume, Day 28: 1642.01 ± 659.32 mm^3
  Day 30 (RTV): 38.70 ± 10.60
  Tumor volume, Day 30: 1323.36 ± 626.45 mm^3
[2]; Day 4
  Day 4 (TGI %): 52.31%
[2]; Day 4, Mean±SEM
  Day 4 (RTV): 3.10 ± 1.46
[3]
  Weight change rate, Day 0: 0.00%
  Weight of mice, Day 0: 20.60 ± 0.23 g
  Weight change rate, Day 1: −0.99 ± 0.59%
  Weight of mice, Day 1: 20.40 ± 0.32 g
  Weight change rate, Day 2: −0.79 ± 0.84%
  Weight of mice, Day 2: 20.45 ± 0.30 g
  Weight change rate, Day 4: −0.38 ± 1.13%
  Weight of mice, Day 4: 20.62 ± 0.28 g
  Weight change rate, Day 7: −1.73 ± 0.99 %
  Weight of mice, Day 7: 20.43 ± 0.27 g
  Weight change rate, Day 9: 1.99 ± 1.71 %
  Weight of mice, Day 9: 21.03 ± 0.23 g
  Weight change rate, Day 11: 3.60 ± 1.31%
  Weight of mice, Day 11: 21.32 ± 0.26 g
  Weight change rate, Day 14: 1.54 ± 2.06 %
  Weight of mice, Day 14: 20.87 ± 0.22 g
  Weight change rate, Day 16: 2.61 ± 2.41%
  Weight of mice, Day 16: 21.02 ± 0.33 g
  Weight change rate, Day 18: 6.99 ± 2.87 %
  Weight of mice, Day 18: 21.80 ± 0.44 g
  Weight change rate, Day 21: 5.42 ± 2.41 %
  Weight of mice, Day 21: 21.55 ± 0.34 g
  Day 22 Mortality: 0%
  Weight change rate, Day 23: 7.14 ± 3.88%
  Weight of mice, Day 23: 21.78 ± 0.58 g
  Weight change rate, Day 25: 7.62 ± 3.76%
  Weight of mice, Day 25: 21.83 ± 0.59 g
  Weight change rate, Day 28: 3.66 ± 3.27%
  Weight of mice, Day 28: 21.27 ± 0.43 g
  Weight change rate, Day 30: 4.94 ± 2.45%
  Weight of mice, Day 30: 21.20 ± 0.60 g
  clinical symptoms: no significant differences in clinical symptoms
